The NIST ThermoML archive (doi:10.1016/j.fluid.2014.09.014)
± gives the expanded uncertainty stated by the source.

Assay: refractive index (other wavelength) (dimensionless); xn = mol fraction of the nth substance listed
Settings: 313.15 K, 101 kPa, Liquid, Standard Abbe refractometry

CC(C)OC(C)C [diisopropyl ether] + CC(C)O
refractive index
Settings	Wavelength=435.8 nm	Wavelength=486.1 nm	Wavelength=546.1 nm	Wavelength=587.6 nm
x1 = 0.0277	–	1.37269 ± 0.00032	1.36987 ± 0.00032	1.3684 ± 0.00032
x1 = 0.0507	–	1.37262 ± 0.00032	1.3698 ± 0.00032	1.36833 ± 0.00032
x1 = 0.051	–	1.37256 ± 0.00032	1.36974 ± 0.00032	1.36828 ± 0.00032
x1 = 0.0717	1.37558 ± 0.00032	1.37221 ± 0.00032	1.36939 ± 0.00032	1.36792 ± 0.00032
x1 = 0.1528	1.3749 ± 0.00032	1.3715 ± 0.00032	1.36872 ± 0.00032	1.36724 ± 0.00032
x1 = 0.1553	1.3749 ± 0.00032	1.3715 ± 0.00032	1.36872 ± 0.00032	1.36724 ± 0.00032
x1 = 0.1938	1.37465 ± 0.00033	1.37126 ± 0.00033	1.36846 ± 0.00033	1.36699 ± 0.00033
x1 = 0.2029	1.37411 ± 0.00033	1.37068 ± 0.00033	1.36791 ± 0.00033	1.36645 ± 0.00033
x1 = 0.245	1.37358 ± 0.00033	1.37022 ± 0.00033	1.36743 ± 0.00033	1.36596 ± 0.00033
x1 = 0.297	1.37276 ± 0.00034	1.36938 ± 0.00034	1.36658 ± 0.00034	1.36512 ± 0.00034
x1 = 0.2973	1.37298 ± 0.00034	1.36959 ± 0.00034	1.36682 ± 0.00034	1.36535 ± 0.00034
x1 = 0.3068	1.37271 ± 0.00034	1.36934 ± 0.00034	1.36655 ± 0.00034	1.36509 ± 0.00034
x1 = 0.398	1.37134 ± 0.00035	1.36798 ± 0.00035	1.3652 ± 0.00035	1.36376 ± 0.00035
x1 = 0.4609	1.3706 ± 0.00035	1.36724 ± 0.00035	1.36445 ± 0.00035	1.36302 ± 0.00035
x1 = 0.5434	1.36967 ± 0.00036	1.36633 ± 0.00036	1.36354 ± 0.00036	–
x1 = 0.6032	1.36891 ± 0.00037	1.36561 ± 0.00037	1.36281 ± 0.00037	–
x1 = 0.6371	1.36856 ± 0.00038	1.36522 ± 0.00038	1.36243 ± 0.00038	–
x1 = 0.701	1.36779 ± 0.00039	1.36447 ± 0.00039	1.36168 ± 0.00039	–
x1 = 0.754	1.36737 ± 0.00039	1.36403 ± 0.00039	1.36126 ± 0.00039	–
x1 = 0.791	1.36694 ± 0.0004	1.36363 ± 0.0004	1.36084 ± 0.0004	–
x1 = 0.8296	1.36655 ± 0.00041	1.36322 ± 0.00041	1.36045 ± 0.00041	–
x1 = 0.8864	1.36643 ± 0.00042	1.36308 ± 0.00042	1.36035 ± 0.00042	–
x1 = 0.8903	1.36585 ± 0.00042	1.36252 ± 0.00042	1.35976 ± 0.00042	–
x1 = 0.9113	1.3656 ± 0.00042	1.36228 ± 0.00042	1.35952 ± 0.00042	–
x1 = 0.9547	1.36513 ± 0.00043	1.3618 ± 0.00043	1.35904 ± 0.00043	–
x1 = 0.973	1.36481 ± 0.00043	1.36145 ± 0.00043	1.35868 ± 0.00043	–
x1 = 0.9771	1.36465 ± 0.00043	1.36134 ± 0.00043	1.35856 ± 0.00043	–
x1 = 1	1.36447 ± 0.00044	1.36119 ± 0.00044	1.35842 ± 0.00044	–
